Experimental data taken from PubChem BioAssay (NCI).
“And” between values parts separate entries of the source, which are not always exact repeats. Identical values can stand only once.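 Test compounds were applied to cells in 96-well plates for 48 hours at 5 doses. GI50 marks 50% less growth. TGI denotes the concentration required for complete inhibition of growth.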

Legend:
Assay in all cases: growth of human tumour cells (NCI), 48 h
[1] = test system: EKVX NSCLC
[2] = test system: HCT-15 colon
[3] = test system: K-562 leukemia
[4] = test system: NCI-H226 lung
[5] = test system: NCI-H23 lung
[6] = test system: OVCAR-3 ovarian
[7] = test system: U251 CNS
[8] = test system: UACC-257 melanoma
[9] = test system: LOX IMVI melanoma
[10] = test system: HL-60(TB) leukemia

N=C(N)c1ccc(COc2ccccc2OCc2ccc(C(=N)N)cc2)cc1
GI50 [1]: 38.5 µM | TGI [1]: > 100 µM | GI50 [2]: 75.6 µM | TGI [2]: > 100 µM | GI50 [3]: 34.8 µM | TGI [3]: > 100 µM | GI50 [4]: 28.6 µM | TGI [4]: 81 µM | GI50 [5]: 49.4 µM | TGI [5]: > 100 µM | GI50 [6]: 16.4 µM | TGI [6]: 53.5 µM | GI50 [7]: 25.6 µM | TGI [7]: 65.4 µM | GI50 [8]: > 100 µM | TGI [8]: > 100 µM

CS/C(C)=N/OC(=O)NCCCCNc1ccc(N=[N+]=[N-])cc1
TGI [1]: > 100 µM | TGI [2]: > 100 µM | TGI [3]: > 100 µM | TGI [9]: > 100 µM | TGI [4]: > 100 µM | TGI [5]: > 100 µM | TGI [6]: 62.9 µM | TGI [7]: > 100 µM | TGI [8]: > 100 µM

COC(=O)C1=C(OC(=O)c2ccc(Cl)cc2)C(C(=O)OC)[C@@]2(O)[C@@H](C(=O)OC)C(c3ccccc3Cl)C[C@@H]1[C@@H]2C(=O)OC (stereo not given in full)
GI50 [1]: 6.17 µM | TGI [1]: > 100 µM | GI50 [2]: 3.04 µM | TGI [2]: > 100 µM | GI50 [3]: 6 µM | TGI [3]: > 100 µM | GI50 [5]: 3.23 µM | TGI [5]: > 100 µM | GI50 [6]: 1.76 µM | TGI [6]: 5.95 µM | GI50 [7]: 3.4 µM | TGI [7]: 27 µM | GI50 [8]: 3.52 µM | TGI [8]: 22.4 µM

CC12CC(OC(=O)[C@]1(C)O)[C@@H]([C@]1(O)CC[C@H]3[C@@H]4C[C@H]5O[C@]56[C@@H](O)C=CC(=O)[C@]6(C)[C@H]4CC[C@@]31C)C2 (stereo not given in full)
TGI [1]: 9.94 µM | TGI [2]: 25.3 µM | TGI [3]: 13.8 µM | TGI [9]: 15.9 µM | TGI [4]: > 100 µM | TGI [5]: 14.4 µM | TGI [6]: 7.72 µM | TGI [7]: 30 µM | TGI [8]: 28.4 µM

Cc1c(Cl)cccc1NC1=C(Cl)C(=O)N(Cc2ccccc2)C1=O
GI50 [2]: 4.37 µM | TGI [2]: 18 µM | GI50 [3]: 4.25 µM | TGI [3]: 16.9 µM | GI50 [9]: 4.83 µM | TGI [9]: 47.8 µM | GI50 [4]: 12.1 µM | TGI [4]: 38.4 µM | GI50 [5]: 10.8 µM | TGI [5]: 22.7 µM | GI50 [6]: 1.47 µM | TGI [6]: 15.2 µM | GI50 [7]: 6.24 µM | TGI [7]: 20.1 µM

COC(=O)c1cc(-c2cccn2C)c2c(c1C(=O)OC)c1ccccc1n2C
TGI [2]: > 100 µM | TGI [10]: > 100 µM | TGI [3]: > 100 µM | TGI [9]: > 100 µM | TGI [5]: > 100 µM | TGI [6]: > 100 µM | TGI [7]: > 100 µM | TGI [8]: > 100 µM

CN(C)c1ccc(C(=C2C=CC(=[N+](C)C)C=C2)c2ccc(N(C)C)cc2)cc1
GI50 [1]: 0.149 µM | TGI [1]: 1.41 µM and 1.5 µM | TGI [2]: 1.35 µM and 1.26 µM | GI50 [10]: 0.16 µM | TGI [10]: 0.493 µM and 0.173 µM | TGI [3]: 1.1 µM and 0.143 µM | TGI [5]: 0.37 µM | GI50 [7]: 0.0462 µM | TGI [7]: 0.565 µM and 1.14 µM | GI50 [8]: 0.228 µM | TGI [8]: 0.763 µM and 0.416 µM

Nc1c(C(=O)Nc2ccccc2)sc2nc3c(cc12)CN(Cc1ccccc1)CC3
GI50 [2]: 24.7 µM | TGI [2]: > 100 µM | GI50 [3]: 9.1 µM | TGI [3]: > 100 µM | GI50 [9]: 10.5 µM | TGI [9]: > 100 µM | GI50 [4]: 4.91 µM | TGI [4]: > 100 µM | GI50 [5]: 21.7 µM | TGI [5]: > 100 µM | GI50 [6]: 11.4 µM | TGI [6]: > 100 µM | GI50 [7]: 13.9 µM | TGI [7]: > 100 µM | GI50 [8]: 52.8 µM | TGI [8]: > 100 µM

COc1cc(C)c(O)c(C(=O)O)c1
TGI [2]: > 100 µM | TGI [3]: > 100 µM | TGI [9]: > 100 µM | TGI [4]: > 100 µM | TGI [5]: > 100 µM | TGI [6]: > 100 µM | TGI [7]: > 100 µM | TGI [8]: > 100 µM

Nc1n[nH]c2cccc(C#Cc3cccc(C(=O)Nc4cc(CN5CCOCC5)cc(C(F)(F)F)c4)c3)c12
GI50 [1]: 5.58 µM | TGI [1]: 19.9 µM | GI50 [2]: 3.57 µM | TGI [2]: 15.2 µM | GI50 [3]: 0.0651 µM | TGI [3]: 2.41 µM | GI50 [9]: 1.87 µM | TGI [9]: 5.63 µM | GI50 [4]: 1.72 µM | TGI [4]: 9.68 µM | GI50 [5]: 3.56 µM | TGI [5]: 18.8 µM | GI50 [6]: 7.41 µM | TGI [6]: 31.3 µM | GI50 [7]: 5.57 µM | TGI [7]: 19.2 µM | GI50 [8]: 4.63 µM | TGI [8]: 18.1 µM

O=C(CN(/C=C/C(=O)C(F)(F)F)c1ccccc1)c1ccc(Cl)c(Cl)c1
GI50 [1]: 13.5 µM | TGI [1]: 28.8 µM | GI50 [2]: 14.6 µM | TGI [2]: 28.2 µM | GI50 [3]: 15.7 µM | TGI [3]: 37.6 µM | GI50 [9]: 16 µM | TGI [9]: 31.8 µM | GI50 [4]: 13.7 µM | TGI [4]: 27.9 µM | GI50 [5]: 13.6 µM | TGI [5]: 26.7 µM | GI50 [6]: 14.1 µM | TGI [6]: 30 µM | GI50 [7]: 14.8 µM | TGI [7]: 28.1 µM | GI50 [8]: 13.4 µM | TGI [8]: 27.4 µM

CCN(CC)CC(C(=O)Nc1c(C)cccc1C)/C(C)=N\NC(=O)c1ccncc1 (stereo not given)
TGI [2]: > 100 µM | TGI [9]: > 100 µM | TGI [4]: > 100 µM | TGI [5]: > 100 µM | TGI [6]: > 100 µM | TGI [7]: > 100 µM | TGI [8]: > 100 µM

C=C1CCc2occ(C)c2C2C1C1=C(CC(C)C1=O)C1OC12C (stereo not given)
TGI [1]: > 100 µM | TGI [2]: > 100 µM | TGI [3]: > 100 µM | TGI [9]: > 100 µM | TGI [4]: > 100 µM | TGI [5]: > 100 µM | TGI [6]: > 100 µM | TGI [7]: > 100 µM | TGI [8]: > 100 µM

CCCC(Sc1ccccc1)P(=O)(c1ccccc1)c1ccccc1 (stereo not given)
TGI [1]: 84.1 µM | TGI [10]: 52.6 µM | TGI [3]: > 100 µM | TGI [9]: > 100 µM | TGI [5]: > 100 µM | TGI [6]: > 100 µM | TGI [7]: > 100 µM | TGI [8]: > 100 µM
